Here are results for 24 compounds from patent publication US8283361B2 (AstraZeneca AB, priority 2008, dated 2012).

Structures are written as SMILES. Read-outs that look alike come from different tables or passages of the source.

This assay concerns the target S. aureus GyrB ATPase (Staphylococcus aureus, UniProt P0A0K8). Put plainly: biochemical. Particulars: for inhibition at 1 µM: read-out: % Inhibition of S. aureus GyrB ATPase. As to the method: S. aureus GyrB ATPase Inhibition Activity: Compounds may be tested for inhibition of S. aureus GyrB ATPase activity using an ammonium molybdate/malachite green-based phosphate detection assay (Lanzetta, P. A., L. J. Alvarez, P. S. Reinach, and O. A. Candia, 1979, 100: 95-97). Assays can be performed in multiwell plates in 30 μl reactions containing: 50 mM Hepes buffer pH 7.5, 75 mM ammonium acetate, 8.0 mM magnesium chloride, 0.5 mM ethylenediaminetetraacetic acid, 5% glycerol, 1.0 mM 1,4-Dithio-DL-threitol, 200 nM bovine serum albumin, 1.0 μg/m1 sheared salmon sperm DNA, 250 pM E. coli GyrA, 250 pM S. aureus GyrB, 250 μM ATP, and compound in dimethylsulfoxide. Reactions can be quenched with 30 μl of ammonium molybdate/malachite green detection reagent containing 1.2 mM malachite green hydrochloride, 8.5 mM ammonium molybdate tetrahydrate, and 1 M hydrochloric acid. […] An IC50 measurement of compound potency for each compound can be determined from reactions performed in the presence of 10 different compound concentrations.

[1] abbreviates: compound at 1 μM, one value per test if tested more than once.

As a reminder, the inhibition is the change of the read-out against control, counted positive when it falls.

Sequence of S. aureus GyrB ATPase (P0A0K8 whole entry): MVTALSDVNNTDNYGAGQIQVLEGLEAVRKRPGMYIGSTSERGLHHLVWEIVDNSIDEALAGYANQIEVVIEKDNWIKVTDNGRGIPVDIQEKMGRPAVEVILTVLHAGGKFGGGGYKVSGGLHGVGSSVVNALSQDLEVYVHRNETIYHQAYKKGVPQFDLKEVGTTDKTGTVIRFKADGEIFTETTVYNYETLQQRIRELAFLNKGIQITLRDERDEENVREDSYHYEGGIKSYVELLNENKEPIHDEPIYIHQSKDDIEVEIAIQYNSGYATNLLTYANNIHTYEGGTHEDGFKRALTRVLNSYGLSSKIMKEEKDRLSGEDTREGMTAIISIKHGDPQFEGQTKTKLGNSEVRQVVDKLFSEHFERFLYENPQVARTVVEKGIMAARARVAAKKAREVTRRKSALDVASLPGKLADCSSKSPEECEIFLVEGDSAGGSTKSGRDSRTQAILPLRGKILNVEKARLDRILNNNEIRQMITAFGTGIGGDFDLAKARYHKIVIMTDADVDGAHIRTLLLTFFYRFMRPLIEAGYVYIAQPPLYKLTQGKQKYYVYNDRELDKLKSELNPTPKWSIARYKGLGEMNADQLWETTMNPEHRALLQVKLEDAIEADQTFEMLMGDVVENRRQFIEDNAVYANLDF
Sequence of S. aureus GyrB ATPase (P0AES4 whole entry, further chain): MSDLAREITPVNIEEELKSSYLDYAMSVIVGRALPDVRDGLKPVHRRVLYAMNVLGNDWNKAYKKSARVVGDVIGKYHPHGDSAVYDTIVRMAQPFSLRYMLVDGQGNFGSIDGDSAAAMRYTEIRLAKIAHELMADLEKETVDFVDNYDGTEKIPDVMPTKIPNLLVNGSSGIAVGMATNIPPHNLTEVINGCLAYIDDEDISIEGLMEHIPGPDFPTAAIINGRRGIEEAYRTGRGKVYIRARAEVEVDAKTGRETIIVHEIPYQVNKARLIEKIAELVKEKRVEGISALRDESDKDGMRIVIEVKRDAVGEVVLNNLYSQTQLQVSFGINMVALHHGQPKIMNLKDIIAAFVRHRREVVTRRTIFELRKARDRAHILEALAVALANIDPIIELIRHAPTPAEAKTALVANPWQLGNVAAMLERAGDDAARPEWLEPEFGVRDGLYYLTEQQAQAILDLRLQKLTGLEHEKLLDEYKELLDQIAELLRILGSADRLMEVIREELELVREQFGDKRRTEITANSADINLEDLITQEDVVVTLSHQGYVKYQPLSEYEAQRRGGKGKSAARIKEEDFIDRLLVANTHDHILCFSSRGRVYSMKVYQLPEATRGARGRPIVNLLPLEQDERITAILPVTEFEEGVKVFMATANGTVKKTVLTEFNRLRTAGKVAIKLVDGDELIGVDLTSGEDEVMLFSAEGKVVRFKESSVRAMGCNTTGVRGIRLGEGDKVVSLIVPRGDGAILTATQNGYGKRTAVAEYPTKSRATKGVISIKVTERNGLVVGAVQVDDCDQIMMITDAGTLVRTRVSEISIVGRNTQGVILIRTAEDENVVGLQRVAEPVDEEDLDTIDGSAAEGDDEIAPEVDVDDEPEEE

For the compound `CCNC(=O)Nc1cc(-c2nc(C(F)(F)F)cs2)c(-c2ccc3c(c2)c(=O)c(C(=O)O)cn3[C@@H]2CCCC[C@@H]2O)cn1` (relative stereo) [Example 276, 6-(6-(3-ethylureido)-4-(4-(trifluoromethyl)thiazol-2-yl)pyridin-3-yl)-1-(cis-2-hydroxycyclohexyl)-4-oxo-1,4-dihydroquinoline-3-carboxylic acid], the inhibition at 1 µM under setting [1] came to 106%.
`CCNC(=O)Nc1cc(-c2nc(C(F)(F)F)cs2)c(-c2ccc3c(c2)c(=O)c(C(=O)O)cn3[C@H]2CNC[C@@H]2O)cn1` (relative stereo) [Example 310, trans 6-(6-(3-ethylureido)-4-(4-(trifluoromethyl)thiazol-2-yl)pyridin-3-yl)-1-(4-hydroxypyrrolidin-3-yl)-4-oxo-1,4-dihydroquinoline-3-carboxylic acid]: under setting [1], the inhibition at 1 µM was determined as 106%.
`CCNC(=O)Nc1cc(-c2nc(C(F)(F)F)cs2)c(-c2ccc3c(c2)c(=O)c(C(=O)O)cn3CCOC)cn1` [Example 1, 6-(6-(3-Ethylureido)-4-(4-(trifluoromethyl)thiazol-2-yl)pyridin-3-yl)-1-(2-methoxyethyl)-4-oxo-1,4-dihydroquinoline-3-carboxylic acid]: the “% Inhibition of S. aureus GyrB ATPase” value (compound at 1 μM, one value per test if tested more than once, 1 µM) stood at 104%. For the same compound, under setting [1], the inhibition at 1 µM turned out to be 100%.
With `CCNC(=O)Nc1cc(-c2nc(-c3ccccc3)cs2)c(-c2ccc3c(c2)c(=O)c(C(=O)O)cn3CCOC)cn1` [Example 2, 6-(6-(3-ethylureido)-4-(4-phenylthiazol-2-yl)pyridin-3-yl)-1-(2-methoxyethyl)-4-oxo-1,4-dihydroquinoline-3-carboxylic acid], the inhibition at 1 µM under setting [1] is 100%.
With `CCNC(=O)Nc1cc(-c2nc(C(F)(F)F)cs2)c(-c2ccc3c(c2)c(=O)c(C(=O)O)cn3C(COC)COC)cn1` [Example 4, 1-(1,3-dimethoxypropan-2-yl)-6-(6-(3-ethylureido)-4-(4-(trifluoromethyl)thiazol-2-yl)pyridin-3-yl)-4-oxo-1,4-dihydroquinoline-3-carboxylic acid], the inhibition at 1 µM under setting [1] is 98%.
With `CCNC(=O)Nc1cc(-c2nc(C(F)(F)F)cs2)c(-c2ccc3c(c2)c(=O)c(C(=O)O)cn3CCCN2CCCC2=O)cn1` [Example 7, 6-(6-(3-ethylureido)-4-(4-(trifluoromethyl)thiazol-2-yl)pyridin-3-yl)-4-oxo-1-(3-(2-oxopyrrolidin-1-yl)propyl)-1,4-dihydroquinoline-3-carboxylic acid sodium], the inhibition at 1 µM was determined as 100%.
For the compound `CCNC(=O)Nc1cc(-c2nc(C(F)(F)F)cs2)c(-c2ccc3c(c2)c(=O)c(C(=O)O)cn3CC)cn1` [Example 10, 1-ethyl-6-(6-(3-ethylureido)-4-(4-trifluoromethylthiazol-2-yl)pyridin-3-yl)-4-oxo-1,4-dihydroquinoline-3-carboxylic acid], under setting [1], the inhibition at 1 µM was found to be 99%.
On the same count and under the same terms, as for `CCNC(=O)Nc1cc(-c2nc(C(F)(F)F)cs2)c(-c2cc3c4c(c2)c(=O)c(C(=O)O)cn4CCO3)cn1` [Example 11, 9-(6-(3-ethylureido)-4-(4-trifluoromethylthiazol-2-yl)pyridin-3-yl)-7-oxo-3,7-dihydro-2H-[1,4]oxazino[2,3,4-ij]quinoline-6-carboxylic acid], the figure is 102%; as for `CCNC(=O)Nc1cc(-c2nc(C(F)(F)F)cs2)c(-c2ccc3c(c2)c(=O)c(C(=O)O)cn3CCCOC)cn1` [Example 12, 6-(6-(3-ethylureido)-4-(4-(trifluoromethyl)thiazol-2-yl)pyridin-3-yl)-1-(3-methoxypropyl)-4-oxo-1,4-dihydroquinoline-3-carboxylic acid], 93%.
For `CCNC(=O)Nc1cc(-c2nc(CC)cs2)c(-c2ccc3c(c2)c(=O)c(C(=O)O)cn3CC)cn1` [Example 13, 1-ethyl-6-(6-(3-ethylureido)-4-(4-ethylthiazol-2-yl)pyridin-3-yl)-4-oxo-1,4-dihydroquinoline-3-carboxylic acid], the inhibition at 1 µM under setting [1] stood at 98%.
In the case of `CCNC(=O)Nc1cc(-c2nc(-c3ccccc3)cs2)c(-c2ccc3c(=O)c(C(=O)O)cn(CC)c3c2)cn1` [Example 15, 1-ethyl-7-(6-(3-ethylureido)-4-(4-phenylthiazol-2-yl)pyridin-3-yl)-4-oxo-1,4-dihydroquinoline-3-carboxylic acid], the inhibition at 1 µM under setting [1] turned out to be 101%.
For the compound `CCNC(=O)Nc1cc(-c2nc(-c3ccccc3)cs2)c(-c2ccc3c(c2)c(=O)c(C(=O)O)cn3CC)cn1` [Example 16, 1-ethyl-6-(6-(3-ethylureido)-4-(4-phenylthiazol-2-yl)pyridin-3-yl)-4-oxo-1,4-dihydroquinoline-3-carboxylic acid], under setting [1], the inhibition at 1 µM was 101%.
With `CCNC(=O)Nc1cc(-c2nc(-c3ccccc3)cs2)c(-c2cc3c4c(c2)c(=O)c(C(=O)O)cn4CCO3)cn1` [Example 17, 9-(6-(3-ethylureido)-4-(4-phenylthiazol-2-yl)pyridin-3-yl)-7-oxo-3,7-dihydro-2H-[1,4]oxazino[2,3,4-ij]quinoline-6-carboxylic acid], the inhibition at 1 µM under setting [1] came to 103%.
As for `CCNC(=O)Nc1cc(-c2nc(C(F)(F)F)cs2)c(-c2ccc3c(c2)c(=O)c(C(=O)O)cn3CCN(C)C)cn1` [Example 18, 1-(2-(dimethylamino)ethyl)-6-(6-(3-ethylureido)-4-(4-(trifluoromethyl)thiazol-2-yl)pyridin-3-yl)-4-oxo-1,4-dihydroquinoline-3-carboxylic acid], the inhibition at 1 µM under setting [1] worked out at 98%.
As to `CCNC(=O)Nc1cc(-c2nc(C(F)(F)F)cs2)c(-c2ccc3c(c2)c(=O)c(C(=O)O)cn3CCO)cn1` [Example 19, 6-(6-(3-Ethylureido)-4-(4-(trifluoromethyl)thiazol-2-yl)pyridin-3-yl)-1-(2-hydroxyethyl)-4-oxo-1,4-dihydroquinoline-3-carboxylic acid], the inhibition at 1 µM under setting [1] amounted to 98%.
Take `CCNC(=O)Nc1cc(-c2nc(C(F)(F)F)cs2)c(-c2ccc3c(c2)c(=O)c(C(=O)O)cn3C2CC2)cn1` [Example 20, 1-Cyclopropyl-6-(6-(3-ethylureido)-4-(4-(trifluoromethyl)thiazol-2-yl)pyridin-3-yl)-4-oxo-1,4-dihydroquinoline-3-carboxylic acid]: the inhibition at 1 µM under setting [1] was 96%.
`CCNC(=O)Nc1cc(-c2nc(C(F)(F)F)cs2)c(-c2ccc3c(c2)c(=O)c(C(=O)O)cn3C(C)C)cn1` [Example 21, 6-(6-(3-Ethylureido)-4-(4-(trifluoromethyl)thiazol-2-yl)pyridin-3-yl)-1-isopropyl-4-oxo-1,4-dihydroquinoline-3-carboxylic acid]: under setting [1], the inhibition at 1 µM was 98%.
`CCNC(=O)Nc1cc(-c2nc(C(F)(F)F)cs2)c(-c2ccc3c(=O)c(C(=O)O)cn(C)c3c2)cn1` [Example 22, 7-(6-(3-Ethylureido)-4(4-(trifluoromethyl)thiazol-2-yl)pyridin-3-yl)-1-methyl-4-oxo-1,4-dihydroquinoline-3-carboxylic acid]: under setting [1], the inhibition at 1 µM amounted to 99%.
For the compound `CCNC(=O)Nc1cc(-c2nc(C(F)(F)F)cs2)c(-c2ccc3c(=O)c(C(=O)O)c[nH]c3c2)cn1` [Example 23, 7-(6-(3-Ethylureido)-4-(4-(trifluoromethyl)thiazol-2-yl)pyridin-3-yl)-4-oxo-1,4-dihydroquinoline-3-carboxylic acid], the inhibition at 1 µM under setting [1] turned out to be 101%.
For the compound `CCNC(=O)Nc1cc(-c2nc(C(F)(F)F)cs2)c(-c2ccc3c(c2)c(=O)c(C(=O)O)cn3C2CN(C)C2)cn1` [Example 24, 6-(6-(3-ethylureido)-4-(4-(trifluoromethyl)thiazol-2-yl)pyridin-3-yl)-1-(1-methylazetidin-3-yl)-4-oxo-1,4-dihydroquinoline-3-carboxylic acid], the inhibition at 1 µM under setting [1] is 99%.
For `CCNC(=O)Nc1cc(-c2nc(C(F)(F)F)cs2)c(-c2ccc3c(=O)c(C(=O)O)cn(CCC(C)C)c3c2)cn1` [Example 25, 7-{6-[(ethylcarbamoyl)amino]-4-[4-(trifluoromethyl)-1,3-thiazol-2-yl]pyridin-3-yl}-1-(3-methylbutyl)-4-oxo-1,4-dihydroquinoline-3-carboxylic acid], the inhibition at 1 µM under setting [1] is 99%.
Turning to `CCCn1cc(C(=O)O)c(=O)c2ccc(-c3cnc(NC(=O)NCC)cc3-c3nc(C(F)(F)F)cs3)cc21` [Example 27, 7-{6-[(ethylcarbamoyl)amino]-4-[4-(trifluoromethyl)-1,3-thiazol-2-yl]pyridin-3-yl}-4-oxo-1-propyl-1,4-dihydroquinoline-3-carboxylic acid], the inhibition at 1 µM under setting [1] stood at 99%.
With `CCNC(=O)Nc1cc(-c2nc(C(F)(F)F)cs2)c(-c2ccc3c(=O)c(C(=O)O)cn(Cc4ccccc4)c3c2)cn1` [Example 28, 1-benzyl-7-{6-[(ethylcarbamoyl)amino]-4-[4-(trifluoromethyl)-1,3-thiazol-2-yl]pyridin-3-yl}-4-oxo-1,4-dihydroquinoline-3-carboxylic acid], under setting [1], the inhibition at 1 µM was determined as 97%.
Consider `CCNC(=O)Nc1cc(-c2nc(C(F)(F)F)cs2)c(-c2ccc3c(=O)c(C(=O)O)cn(CCO)c3c2)cn1` [Example 30, 7-{6-[(ethylcarbamoyl)amino]-4-[4-(trifluoromethyl)-1,3-thiazol-2-yl]pyridin-3-yl}-1-(2-hydroxyethyl)-4-oxo-1,4-dihydroquinoline-3-carboxylic acid], for which the inhibition at 1 µM under setting [1] worked out at 95%.
